This note sets out measurements from ChEMBL document CHEMBL1149991, “Benzofuran based angiotensin II antagonists related to GR117289: enhancement of potency in vitro and oral activity” (Bioorg Med Chem Lett, 1993).

The target in the test is T1, Type-1 angiotensin II receptor (Oryctolagus cuniculus) (UniProt P34976).
T1 sequence (whole entry): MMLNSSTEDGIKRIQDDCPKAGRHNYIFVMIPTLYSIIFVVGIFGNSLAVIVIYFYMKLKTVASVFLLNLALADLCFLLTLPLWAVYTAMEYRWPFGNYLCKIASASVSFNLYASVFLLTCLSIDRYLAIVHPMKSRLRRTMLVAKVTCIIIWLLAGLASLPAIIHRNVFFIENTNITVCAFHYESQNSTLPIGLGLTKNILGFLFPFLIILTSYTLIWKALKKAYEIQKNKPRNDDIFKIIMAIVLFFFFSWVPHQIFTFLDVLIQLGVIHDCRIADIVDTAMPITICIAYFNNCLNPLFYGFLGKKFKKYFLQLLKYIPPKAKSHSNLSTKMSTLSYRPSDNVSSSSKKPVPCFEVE
Kind of test: In vitro for its antagonistic activity against angiotensin II type 1 receptor in Rabbit Aorta. The format is functional, tissue-based.
As to `CCCCc1nc(Cl)c(CC(=O)O)n1Cc1ccc2oc(-c3ccccc3-c3nn[nH]n3)c(Br)c2c1`, the pKB (usually the KB on a negative log10 scale, so that one unit is a factor of ten) was determined as 9.8.
`CCCCc1nc(Cl)c(C(=O)OCC)n1Cc1ccc2oc(-c3ccccc3-c3nn[nH]n3)c(Br)c2c1` registered a pKB of 8.3.
In turn, `CCCCc1nc(Cl)c(C(=O)O)n1Cc1ccc2oc(-c3ccccc3-c3nn[nH]n3)c(Cl)c2c1` showed a pKB of 10.5.
The compound `CCCCc1nc(Cl)c(C(=O)O)n1Cc1ccc2oc(-c3ccccc3NS(=O)(=O)C(F)(F)F)c(Br)c2c1` yielded a negative-log KB (pKB) of 7.8.
`CCCCc1nc(Cl)c(C(N)=O)n1Cc1ccc2oc(-c3ccccc3-c3nn[nH]n3)c(Br)c2c1` came in with a pKB of 9.
Then `CCCCc1nc(Cl)c(C(=O)NC)n1Cc1ccc2oc(-c3ccccc3-c3nn[nH]n3)c(Br)c2c1`, with 9.2.
With `CCCCc1nc(Cl)c(C(=O)O)n1Cc1ccc2oc(-c3ccccc3C(=O)Nc3nn[nH]n3)c(Br)c2c1` the figure was 8.8.
The compound `CCCCc1nc(Cl)c(C(=O)O)n1Cc1ccc2oc(-c3ccccc3-c3nn[nH]n3)c(C(F)(F)F)c2c1` had a negative-log KB (pKB) of 10.
The compound `CCCCc1nc(Cl)c(CNC(N)=O)n1Cc1ccc2oc(-c3ccccc3-c3nn[nH]n3)c(Br)c2c1` displayed a pKB of 8.8.
For `CCCCc1nc(Cl)c(C(=O)O)n1Cc1ccc2oc(-c3ccccc3-c3nnnn3C)c(Br)c2c1`, the pKB was 7.3.
Compound `CCCCc1nc(Cl)c(C(=O)O)n1Cc1ccc2oc(-c3ccccc3-c3nn[nH]n3)c(OC)c2c1` yielded a pKB of 9.6.
Consider `CCCCc1nc(Cl)c(C(=O)O)n1Cc1ccc2oc(-c3ccccc3-c3nnn(C)n3)c(Br)c2c1`, for which the negative-log KB (pKB) is 6.4.
Take `CCCCc1nc(Cl)c(C(=O)O)n1Cc1ccc2oc(-c3ccccc3-c3nn[nH]n3)c(C(C)(C)C)c2c1`: the pKB was 8.3.
Regarding `CCCCc1nc(Cl)c(C(=O)O)n1Cc1ccc2oc(-c3ccccc3C(N)=O)c(Br)c2c1`, the negative logarithm of the KB (pKB) stood at 7.2.
For the compound `CCCCc1nc(Cl)c(C(=O)O)n1Cc1ccc2oc(-c3ccccc3C(=O)OCC)c(Br)c2c1`, the negative-log KB (pKB) was 7.8.
`CCCCc1nc(Cl)c(C(=O)N(C)C)n1Cc1ccc2oc(-c3ccccc3-c3nn[nH]n3)c(Br)c2c1` showed a negative-log KB (pKB) of 8.8.
`CCCCc1nc(Cl)c(C(=O)O)n1Cc1ccc2oc(-c3ccccc3C#N)c(Br)c2c1` showed a negative-log KB (pKB) of under 6.
